Source: patent publication US20250248393A1, “METHOD OF RELEASING A SEMIOCHEMICAL IN THE ENVIRONEMENT BY PASSIVE DIFFUSION, SYSTEM AND MEANS, ESPECIALLY STICKS, TO THIS END, AND USES THEREOF” (SIGNS, priority 2024, published 2025)
Where two headings read alike, the source gives them in different places.

Columns and labels:
[1] = cited from earlier work
[2] = F3 sticks device, direct diffusion, 40 mL and four sticks (SPME GC/MS); format: physicochemical; conditions: four sticks
Experimental: Three devices containing 40 mL of F3 feline facial pheromone product and four rattan sticks were prepared and left on diffusion. Every Monday, Wednesday and Friday, the diffusion of the pheromone in air was checked by analysis by gas chromatography coupled with mass spectrometer (GC/MS) and SPME (solid phase microextraction) until there is no liquid left (about 22 days).
To that purpose, the studied device was taken and placed into a closed space (in our case an aquarium turned over) containing the SPME fiber as shown on FIG. 24.
The SPME fiber was left for two hours to give the time for the molecules to adsorb on the fiber, then the fiber was injected into the GC/MS instrument for analysis.
Analysis were carried out using gas chromatography with mass spectrometer. The instrument was a GCMS QP2010SE® from Shimadzu with an AOC6000® Autosampler. The separation was performed on a ZB-5 MS® column (30 m×0.25 mm×0.25 μm, stationary phase: 95% Dimethylpolysiloxane, 5% Phenyl-Arylene) from Phenomenex. The GC oven temperature was initially held at 100° C. for 1 minute then increased at a pace of 10° C./min to 120° C. and left at this temperature for 3 minutes. Finally, the oven temperature was increased at a pace of 10° C./min to 240° C. and left at this temperature for 10 minutes. The carrier gas was helium at 1 mL/min. Analysis were performed in split mode using a split/splitless injector (Temperature: 250° C., split: 1:20). The SPME fiber was directly injected into the injector and left for 30 minutes. Separated molecules were detected using a mass spectrometer which was operated in electron impact ionization (EI) in both full scan (FS) and single ion monitoring (SIM) modes, so called FASST (Fast Automated SCAN/SIM type) mode. The interface temperature was set at 300° C. and electron impact source temperature at 250° C. The analyser was a quadrupole.
For the measurement of the relative quantity of active ingredient spreading in air, the area of the chromatographic peak corresponding to the compound was measured using Shimadzu GCMS-Solution software.

[3] = F3 migration along the stick (top 1 cm, GC/MS); format: physicochemical; conditions: F3, five sticks
Experimental: Three devices containing 40 mL of F3 feline facial pheromone product and five […] sticks were prepared and left on diffusion. A t=1 day, T=3 days, T=10 days, T=15 days and T=22 days after preparation of the devices, one stick was taken on each device and 1 cm of the top of each stick was cut, then extracted with acetone 1 h in an ultrasonic bath and analysed by gas chromatography coupled with mass spectrometry (GC/MS). The same analytical parameters were used for the study C with a liquid injection (injected quantity: […]) Blank analysis and matrix blank analysis were also performed.

[4] = Ratios of molecules diffused through the sticks over time; format: physicochemical
Experimental: Furthermore, as small molecules diffuse more, it happens that they lose intensity over the course of the study, so the ratios are different 24 hours after immersing the sticks in the liquid and 21 days later. Here are the ratios for each pheromone studied at the start of the study and at the end.

[5] = F3 block stability study in sodium stearate aqueous gel (GC-MS); format: physicochemical; conditions: after 3 months
Experimental: Aqueous sodium stearate gel is a method used by SIGNS for several of the pheromones it markets (pork, poultry, rabbit). The sodium stearate matrix is cast at high temperature (60° C.) and contains 2% pheromone. In this study, matrix samples are taken by coring, and the active ingredients are extracted by apolar solvent, using the SIGNS-validated quality control method. Extracts are analyzed by GC-MS. […] Given this observation, formula F3 cannot be used in blocks for passive diffusion, so a change of galenic formulation is necessary.

[6] = Indirect assay of diffuser blocks (GC/FID, pheromone remaining in the block); format: physicochemical; conditions: despecified pheromone
Experimental: Analyses were carried out using the gas chromatography (GC) technique with a flame ionization detector (FID), commonly known as GC/FID. The instrument used was the Shimadzu GC2025.® • Injection: Quantity injected: 1 μL, split 50:1, temperature: 230° C. • Separation: DB-WAX column (Agilent), length: 20 m, diameter: 180 μm, film thickness: […] • Carrier gas: Helium (He) • Analysis time: 11.50 min (not including time to return to equilibrium between each analysis) injection). • Detection: FID, temperature: 250° C., flow rates: H2: 40 mL/min, Air: 400 mL/min, Nitrogen (make-up): 30 mL/min. To obtain a representative sample, “cores” were drilled at various positions in the block and then collected. 2.5 g of gel were weighed into a 50 mL volumetric flask and the volume made up to the beginning of the neck of the flask with acetone. The flask was then placed in an ultrasonic bath for one hour until the block was dissolved (a white precipitate was obtained), then acetone was added to the mark. An aliquot of this solution was placed in a syringe fitted with a syringe filter and filtered to obtain a translucent solution. The resulting solution was transferred to a 1.5 mL GC vial for analysis. The assays were carried out using a calibration range.

[7] = DAP PCDS direct diffusion (SPME-GC/MS); format: physicochemical; conditions: DAP/PCDS diffuser, 40 mL, 6 capillaries
Experimental: Three diffusers, each containing 40 mL of solution and 6 capillaries, were prepared and diffused. The first points were measured at T=1d, T=2, and T=3d, then every Monday, Wednesday and Friday of each study week until the diffusers no longer contained any solution. To measure the pheromone released into the air at each study time, the diffuser is first weighed (with the sticks) to measure mass loss, then placed in an enclosed area (in this case, an upside-down aquarium) containing a SPME fiber, as shown in FIG. 24.
The fiber is left to diffuse above the diffuser for 2 hours (a time determined in a previous method development as the optimum time for molecules to adsorb to the phase), then analyzed using the gas chromatography/mass spectrometry (GC/MS) technique.
Three diffusers were studied for greater accuracy. The chromatograms obtained are reprocessed using GC/MS Solution software.
For each chromatographic peak, the area is recorded using GC/MS Solution software, then entered into an Excel spreadsheet. Diffusion curves giving the area of the chromatographic peak corresponding to each active ingredient as a function of time are then plotted.
Analyses were carried out by gas chromatography/mass spectrometry (GC/MS). The instrument was a Shimadzu GCMS QP2010SE® equipped with an AOC 6000® autosampler. Separation was carried out on a ZB-FFAP® column (30 m×0.25 mm×0.25 μm, stationary phase: nitroterephthalic acid-modified polyethylene glycol) supplied by Phenomenex. The furnace temperature was initially set at 80° C. for 1 minute, then increased at 10° C./min to 240° C. and maintained at this temperature for 2 minutes. The carrier gas was helium at a flow rate of 1 mL/min. Analysis time is 19 minutes.
The injector is a split/splitless injector used in split mode (temperature: 250° C., split: 50:1). The SPME fiber was injected directly into the injector and left to desorb for 15 minutes.
The separated molecules were detected using a mass spectrometer equipped with an electron impact source (temperature: 200° C.). The analyzer is a simple quadrupole. The interface temperature is 250° C. Data were acquired in FASST mode (Fast automated SCAN/SIM type), i.e. part of the analysis was performed by scanning all ions (SCAN) and part by selecting specific ions (SIM). Target molecules were thus analyzed using ion selection.

[8] = Indirect assay of rod diffuser solution (GC/FID); format: physicochemical; conditions: stick diffuser solution, despecified pheromone
Experimental: Solution integrity was checked at each analysis time. Before each indirect assay, the vial was weighed to visualize mass loss over time. Each vial contained six sticks. • Specifications: the solution must lose mass over time. • Result: Compliant—See FIG. 9 This is the same analytical method as for the diffuser block study, only the sample preparation differs. 1.25 g of solution were weighed into a 25 mL volumetric flask and the volume made up to the mark with acetone. The resulting solution is transferred to a 1.5 mL GC vial for analysis. This is exactly the same calibration range as for the diffuser block study.

[9] = Pheromone migrated to the stick tips (GC/FID); format: physicochemical; conditions: on stick tips, despecified pheromone
Experimental: In the course of this study, we also measured the amount of pheromone migrating on the sticks, to check that the pheromone had migrated to the top of the sticks, helping it to diffuse into the air. To do this, the test is the same as for the diffuser blocks: 2.5 g of stick tips are cut off and placed in a 50 mL flask, which is then placed in an ultrasonic bath for one hour. The resulting solution is filtered (to avoid injecting particles into the instrument) and placed in a chromatographic vial for analysis.

[10] = Direct diffusion of diffuser blocks (SPME GC/MS); format: physicochemical; conditions: despecified pheromone 2%, 4 weeks
Experimental: Analyses were carried out using gas chromatography (GC) coupled to a mass spectrometer (MS) detector, a technique commonly referred to as GCMS. The molecules of interest were extracted using the Solid Phase Micro-Extraction (SPME) technique. The instrument used was the following: QP2010SE® from Shimadzu (See FIG. 4).
AOC 6000® automatic feeder • Extraction/SPME fiber: polyacrylate/Fused silica (85 μm), 23 Ga. • Adsorption time: 2 hours (exposure time of fiber above block) (See FIG. 4) • Desorption time: 30 minutes (fiber exposure time in injector) • Fiber-block distance: 2 cm • Injection: split/splitless injector • Temperature: 250° C., split 50 mode. • Separation: ZB-FFAP® column (Phénomenex), length: 30 m, diameter: 250 μm, film thickness: […]
• Carrier gas: Helium (He) • Analysis time: 18 min (not including time to return to equilibrium between each analysis injection • Detection: mass spectrometer with electron impact source/analyzer: quadrupole. • Source temperature: 200° C. • Interface temperature: 250° C. • Scan m/z 50 to m/z 500 • SIM with ions 55, 66 and 74.
Analyses were carried out in triplicate to verify reproducibility of results.
With the SPME method, results are evaluated by measuring the chromatographic peak area. The data have been plotted on diffusion curve (see FIGS. 5 and 6).

[11] = F3P, 24 h after immersion of the sticks
[12] = F3P, 21 days after immersion of sticks (empty tank)

Q: With COC(C)(C)CCO [3-methoxy-3-methyl-1-butanol] as the compound, how does the vapor pressure ([1]; at 20° C.) read?
A: The vapor pressure was 0.07 kPa.

Q: What about the vapor pressure ([1]; at 25° C.) of the same compound?
A: The vapor pressure was 0.12 kPa.

Q: Which “direct diffusion over time” value [2] does the source give for COC(=O)CCCCCCCC(=O)OC [dimethyl azelate, dimethyl nonanedioate] here?
A: The value was “constant diffusion”.

Q: And the “relative quantity on the top of the stick” value [3]?
A: Its value is “less present”.

Q: What about the “ratio of molecules diffused through the sticks” value (“ratio” for short) ([4]; F3, 24 h after immersion of sticks) of the same compound?
A: Its value is 25 % (w/w).

Q: And the “ratio” value ([4]; F3, 21 days after immersion of sticks (empty tank))?
A: The value was 43 % (w/w).

Q: And the “ratio” value [4, 11]?
A: Its value is 18 % (w/w).

Q: And the “ratio” value [4, 12]?
A: Its value is 31.3 % (w/w).

Q: What about the “stability in the block” value [5] of the same compound?
A: The value was “disappeared completely”.

Q: Which “% of the active ingredient in the pheromone” value (from here on “% of the active ingredient”) ([6]; day 0) does the source give for CCCCC/C=C\C/C=C\CCCCCCCC(=O)OC [methyl linoleate, methyl (9Z,12Z)-octadeca-9,12-dienoate] here?
A: Its value is 30.4%.

Q: What about the “% of the active ingredient” value ([6]; day 7) of the same compound?
A: The value was 30.2%.

Q: What about the “% of the active ingredient” value ([6]; day 14) of the same compound?
A: Its value is 30.4%.

Q: What about the “% of the active ingredient” value ([6]; day 21) of the same compound?
A: Its value is 30.5%.

Q: And the “% of the active ingredient” value ([6]; day 28)?
A: The value was 30.5%.

Q: And the “ratio” value ([4]; DAP, 24 h after immersion of sticks)?
A: The value was 3 % (w/w).

Q: What about the “ratio” value ([4]; DAP, 21 days after immersion of sticks (empty tank)) of the same compound?
A: Its value is 4 % (w/w).

Q: What about the “ratio” value ([4]; Despecified pheromone (Core), 5 days after immersion of the sticks) of the same compound?
A: The value was 2 % (w/w).

Q: And the “ratio” value ([4]; Despecified pheromone (Core), 21 days after immersion of sticks (empty tank))?
A: Its value is 4 % (w/w).

Q: And the “ratio” value [4, 11]?
A: Its value is 0.3 % (w/w).

Q: And the “ratio” value [4, 12]?
A: The value was 0.5 % (w/w).

Q: What about the “direct diffusion over time” value [7] of the same compound?
A: The value was “slight increase over time”.

Q: And the “% of the active ingredient” value ([8]; day 0)?
A: The value was 30.0%.

Q: And the “% of the active ingredient” value ([8]; day 7)?
A: The value was 30.0%.

Q: And the “% of the active ingredient” value ([8]; day 14)?
A: The value was 30.1%.

Q: And the “% of the active ingredient” value ([8]; day 21)?
A: The value was 31.5%.

Q: And the “% of the active ingredient” value ([9]; day 7)?
A: Its value is 29.7%.

Q: What about the “% of the active ingredient” value ([9]; day 14) of the same compound?
A: The value was 30.1%.

Q: And the “% of the active ingredient” value ([9]; day 21)?
A: The value was 28.6%.

Q: And the “direct diffusion from the diffuser block” value [10]?
A: Its value is “lowest intensity”.
